Experimental data from PMC6471066, “Spiralyde A, an Antikinetoplastid Dolabellane from the Brown Alga Dictyota spiralis” (Marine Drugs, 2019).

Assays:
[1] = tested on: promastigotes of Leishmania amazonensis (MHOM/BR/77/LTB0016); assay: Leishmanicidal capacity assay (Alamar Blue); format: cell-based; details: promastigote form; for IC50: Leishmania amazonensis
Protocol: (§1) Bioassay-guided fractionation of the crude extract yielded six dolabellanes 1–6. Their in vitro antiprotozoal activity was evaluated applying serial dilutions of the compounds, and IC50 were calculated using the Alamar Blue reagent reaction.
(§2) The activity of the crude extract, different subfractions and isolated compounds were evaluated against promastigotes of Leishmania amazonensis (MHOM/BR/77/LTB0016) and epimastigotes Trypanosoma cruzi (Y strain). Cytotoxicity assay of the active compounds was tested against the murine macrophage J774.A1 cell line (ATCC # TIB-67).
Logarithmic phase cultures of Leishmania amazonensis were used for experimental purposes, and the in vitro susceptibility assay was performed in sterilized 96-well plates. 10^6/well parasites were added to wells containing different concentration of the drug to be tested. Percentages of inhibition, 50% inhibitory concentrations (IC50) for active compounds were calculated by linear regression analysis using the Alamar Blue method.

[2] = tested on: epimastigotes Trypanosoma cruzi (Y strain); assay: Trypanocidal capacity assay (Alamar Blue); format: cell-based; details: epimastigote form; for IC50: 96 h
Protocol: as §1, §2
The activity was evaluated in vitro against epimastigote stage of Trypanosoma cruzi. Different concentrations of fractions and compounds were incubated in 96 wells plate for 96 h with a density of 10^5 parasite/well. 10% of Alamar blue was added to each well and the IC50 was calculated. All assays have been realized in triplicate.

[3] = Cytotoxicity assay (Alamar Blue); format: cell-based; details: mouse, J774.A1 macrophage cell line (ATCC TIB-67), murine macrophage J774.A1
Protocol: as §2, with “TIB-67).[…]” for “TIB-67).”

[4] = tested on: promastigote form of L. amazonensis; set-up: method as in PMID 22970332; details: promastigotes; cited from earlier work

Structure (SMILES) | IC50 [1] [µM] | antikinetoplastid activity against Leishmania amazonensis (in words) [1] | IC50 ([2]; Trypanosoma cruzi) [µM] | antikinetoplastid activity against Trypanosoma cruzi (in words) [2] | CC50 at 24 h [3] [µM] | IC50 [4] [µM] | IC50 [2] [µM]
C=C(C)[C@H]1CC(=O)[C@]2(C)C[C@@H]3O[C@@]3(C)CC/C=C(\C)CC[C@@H]12 [compound 4, (1R,3S,4S,7E,11S,12S)-3,4-Epoxy-14-oxo-7,18-dolabelladiene] | > 100 | inactive | > 100 | inactive |  |  | 
C=C(C)[C@H]1C[C@H](O)[C@]2(C)C[C@@H]3O[C@@]3(C)CC/C=C(\C)CC[C@@H]12 [compound 3, (1R,3S,4S,7E,11S,12S,14S)-3,4-Epoxy-14-hydroxy-7,18-dolabelladiene] | > 100 | inactive | > 100 | inactive |  |  | 
C=C(C)[C@H]1CC(=O)[C@]2(C)C/C=C(\C)CC/C=C(\C)CC[C@@H]12 [compound 5, (1R,3E,7E,11S,12S)-14-Oxo-3,7,18-dolabellatriene] | > 100 |  | > 100 |  |  |  | 
C=C(C)C1CCC2(C)CC=C(C)CCC=C(C=O)C(O)CC12 (stereo not shown) [Spiralyde A (1), Spiralyde A] | 15.5 ± 0.26 |  | 5.62 ± 2.48 |  | 23.4 ± 5.62 |  | 
C[C@H]1/C=C/[C@@]2(C)CC[C@@H](C(C)(C)O)[C@@H]2[C@@H](O)C[C@](C)(O)/C=C/C1 [dolabelladienetriol (9), dolabelladienetriol] |  |  |  |  |  | 44 | 
C=C(C)[C@H]1CC[C@]2(C)C[C@@H]3O[C@@]3(C)CC/C=C(\C)CC[C@@H]12 [compound 2, (1R,3S,4S,7E,11S,12S)-3,4-Epoxy-7,18-dolabelladiene] | 36.8 ± 5.2 | moderate activity | 35.3 ± 4.09 | moderate activity | 69.98 ± 0.14 |  | 
C=C(C)C1CC(=O)C2(C)CC=C(C)CCC=C(C)CCC12 [compound 6, (1R,3Z,7E,11S,12S)-14-Oxo-3,7,18-dolabellatriene] | > 100 |  | > 100 |  |  |  | 
O=C(Cn1ccnc1[N+](=O)[O-])NCc1ccccc1 [Benznidazole, reference compound] |  |  | 6.95 |  | 400 ± 4 |  | 6.94 ± 1.94
CCCCCCCCCCCCCCCCOP(=O)([O-])OCC[N+](C)(C)C [Miltefosine, reference compound] |  |  |  |  | 72.2 ± 3.06 |  | 
